How the values were obtained:
[1] = test system: MDA-MB-231 triple negative breast cancer cells; experiment: XTT cell growth assay, MDA-MB-231; type: cell-based, human; settings: NS = not statistically significant; for inhibition at 50 µM: Homo sapiens, MDA-MB-231, 24 h, read-out: Effectiveness to suppress MDA-MB-231 cell growth (cell growth inhibition); for Effectiveness to suppress MDA-MB-231 cell growth (cell growth inhibition): 50 uM, 24 h
Source text: (§1) The XTT assay is used to measure cellular metabolic activity as an indicator of cell viability, proliferation and cytotoxicity. This non-radioactive, colorimetric assay system was first described by Scudiero, et al. in 1988 (Paull, Kenneth D. et al., J Heterocycl Chem, 1988, 25: 911-914; Scudiero, Dominic A. et al., Cancer Res, 1988, 48: 4827-4833) and improved in subsequent years by several other investigators (Weislow, Owen S. et al., J Natl Cancer Inst, 1989, 81(8): 577-586; Roehm, N. W. et al., J Immunol Methods, 1991, 142: 257-265).
(§2) The XTT assay is based on the reduction of a yellow tetrazolium salt (sodium 3′-[1-(phenylaminocarbonyl)-3,4-tetrazolium]-bis (4-methoxy6-nitro) benzene sulfonic acid hydrate or XTT) to an orange formazan dye by metabolically active cells (FIG. 8). The formazan dye formed is soluble in aqueous solutions and is directly quantified using a scanning multiwell spectrophotometer (ELISA reader). An increase in number of living cells results in an increase in the overall activity of mitochondrial dehydrogenases in the sample. This increase directly correlates to the amount of orange formazan formed, as monitored by the absorbance. Reduced number of living cells leads to reduced metabolism of quaternary salt and therefore reduced absorption.
(§3) Cell viability was assessed using the XTT assay kit (Roche, Mannheim, Germany) as described previously (Kouka, Paraskevi et al., Oxid Med Cell Longev. 2019, Article ID 1870965). Briefly, cancer cells per well were cultured in a 96-well plate in Dulbecco's modified Eagle's medium (DMEM). Following a 24 h incubation, 5, 10 and 50 μM of the tested GS compound was diluted in a serum-free DMEM and administered for 24 h. Subsequently, 50 μL of the XTT reagent (50:1) was added to each well. After 4 h of incubation, the absorbance was monitored at 450 nm and also at 630 nm as a reference wavelength in a BioTek ELx800 microplate reader (BioTek Instruments Inc., Winooski, VT, USA). As a negative control, samples containing serum-free DMEM only were used.
MDA-MB-231 is a human epithelial breast cancer cell line that was established from a pleural effusion of a person with a metastatic mammary adenocarcinomal and is one of the most commonly used breast cancer cell lines in medical research laboratories.
(§4) The effects of exemplary compounds on cancer cell lines and one non-tumorigenic cell line (control) were investigated using a high throughput screening assay. More specifically, the effects of the GS compounds on cell growth was evaluated by the XTT assay for cell lines HepG2, HeLa, MCF7 ER+, MDA-MB-231, and MKN-45, and by the Cell Glo luminescence assay for cell lines MIA PaCa-2, HCT-116, MCF-10A, and PANC-1.

[2] = test system: HeLa cervical cancer cells; experiment: XTT cell growth assay, HeLa; type: cell-based, human; settings: Homo sapiens, HeLa, 24 h, NS = not statistically significant, read-out: Effectiveness to suppress HeLa cell growth (cell growth inhibition)
Source text: as §1, §2, §3
HeLa is a human immortal cell line used in scientific research. It is the oldest and most commonly used human cell line. The line was derived from cervical cancer cells taken on Feb. 8, 1951 from Henrietta Lacks, a patient who died of cancer on Oct. 4, 1951.
as §4

[3] = test system: MIA PaCa-2 pancreatic cancer cells; experiment: Cell Glo luminescence cell growth assay, MIA PaCa-2; type: cell-based, human; settings: Homo sapiens, MIA PaCa-2, 24 h, NS = not statistically significant, read-out: Effectiveness to suppress MIA PaCa-2 cell growth (cell growth inhibition)
Source text: (§5) The CellTiter-Glo® Luminescent Cell Viability Assay (Promega Corporation; Madison, WI) is a homogeneous method of determining the number of viable cells in culture based on quantitation of the ATP present, an indicator of metabolically active cells. The homogeneous assay procedure involves adding the single reagent (CellTiter-Glo® Reagent) directly to cells cultured in serum-supplemented medium. The homogeneous “add-mix-measure” format results in cell lysis and generation of a luminescent signal proportional to the amount of ATP present. The amount of ATP is directly proportional to the number of cells present in culture.
(§6) Cancer cells (3,000 cells/well) were harvested in a 96-well plate. Then, the cancer cells were treated with GS compounds and incubated for 24 hours. The MT Cell Viability Substrate, NanoLuc® Enzyme and cell culture medium was equilibrated to 37° C. The 2× RealTime-Glo™ reagent was prepared by diluting the MT Cell Viability Substrate and NanoLuc® Enzyme in 37° C. cell culture medium to a 2× concentration for each reagent. For example, 1 mL of 2× RealTime-Glo™ reagent was prepared by adding 2 μL of MT Cell Viability Substrate, 1,000×, and 2 μL of NanoLuc® Enzyme, 1,000×, to 996 μL of cell culture medium to form the 2× RealTime-Glo™ reagent. Then, an equal volume of 2× RealTime-Glo™ reagent was added to the cancer cells. The cells were kept for ˜20 minutes in the cell culture incubator and then luminescence was measured by using a plate-reading luminometer.
MIA PaCa-2 is a human pancreatic ductal adenocarcinoma cell line derived from the carcinoma of a person.
as §4

[4] = test system: HCT-116 colon cancer cells; experiment: Cell Glo luminescence cell growth assay, HCT-116; type: cell-based, human; settings: NS = not statistically significant; for Effectiveness to suppress HCT-116 cell growth (cell growth inhibition): 1 uM, 24 h; for inhibition at 1 µM: Homo sapiens, HCT-116, 24 h, read-out: Effectiveness to suppress HCT-116 cell growth (cell growth inhibition)
Source text: as §5, §6
HCT-116 is a human colorectal cancer cell lines that has a mutation in RAS proto-oncogene.
as §4

[5] = test system: MCF-7 ER+ breast cancer cells; experiment: XTT cell growth assay, MCF-7 ER+; type: cell-based, human; settings: Homo sapiens, MCF7, 24 h, NS = not statistically significant, read-out: Effectiveness to suppress MCF7 cell growth (cell growth inhibition)
Source text: as §1, §2, §3
MCF-7 ER+ is a human breast cancer cell line isolated in 1970 from a person. Prior to MCF-7, it was not possible for cancer researchers to obtain a mammary cell line that was capable of living longer than a few months.
as §4

[6] = test system: MKN-45 gastric cancer cells; experiment: XTT cell growth assay, MKN-45; type: cell-based, human; settings: Homo sapiens, MKN-45, 24 h, NS = not statistically significant, read-out: Effectiveness to suppress MKN-45 cell growth (cell growth inhibition)
Source text: as §1, §2, §3
MKN-45 is a human gastric adenocarcinoma, established from the poorly differentiated adenocarcinoma of the stomach (medullary type) of a person.
as §4

[7] = Deoxyribose degradation assay (hydroxyl radical scavenging); type: biochemical; settings: NS = not statistically significant
Experimental: The hydroxyl radical (OH.) is an extremely reactive in biological systems and has been implicated as highly damaging species in free radical pathology, capable of damaging biomolecules of the living cells. These radical combines with nucleotides in DNA and cause strand breakage leading to carcinogenesis, mutagenesis and cytotoxicity. Hydroxyl radical (OH.) scavenging capacity of an extract is directly related to its antioxidant activity.
The effect of extracts on hydroxyl radicals was assayed by using the deoxyribose method. 2-Deoxyribose is degraded on exposure to hydroxyl radicals generated by Fenton's reaction. The ability to neutralize the OH. is estimated as the rate of inhibition of the oxidation of 2-deoxyribose by the OH. (FIG. 5).
The measurement of the hydroxyl radical scavenging activity was evaluated for each of the GS compound by evaluating the pink chromogen absorption at 532 nm by spectrophotometry as described previously (Perjesi, Pal et al., Open Med Chem J., 2011, 5: 61-67

SMILES | inhibition at 50 µM [1] [%] | inhibition at 50 µM [2] [%] | inhibition at 50 µM [3] [%] | Effectiveness to suppress HCT-116 cell growth (cell growth inhibition) [4] | inhibition at 1 µM [4] [%] | inhibition at 50 µM [5] [%] | Effectiveness to suppress MDA-MB-231 cell growth (cell growth inhibition) [1] | inhibition at 50 µM [6] [%] | Deoxyribose Degradation Assay IC50 [7] [μg extract/mL]
C/C=C1/[C@H](OC2OC(CO)C(O)C(O)C2O)OC=C(C(=O)O)[C@H]1CC(=O)OCCc1ccc(O)cc1 (stereo in doubt) [GS7, (2S,4S,E)-3-ethylidene-4-(2-(4-hydroxyphenethoxy)-2-oxoethyl)-2{[(2R,3 S,4R,5R,6S)-3,4,5-trihydroxy-6-(hydroxymethyl)tetrahydro-2H-pyran-2-yl]oxy}-3,4dihydro-2H-pyran-5-carboxylic acid] | 32.7 | – | – | – | – | – | – | – | –
C/C=C1/[C@H](OC2OC(CO)C(O)C(O)C2O)OC=C(C(=O)O)[C@H]1CC(=O)SCCc1ccccc1 (stereo in doubt) [GS11, (2S,4S,E)-3-ethylidene-4-(2-oxo-2-(phenethylthio)ethyl)-2-{[(2R,3S,4R,5R,6S)-3,4,5-trihydroxy-6-(hydroxymethyl)tetrahydro-2H-pyran-2-yl]oxy}-3,4-dihydro-2H-pyran-5-carboxylic acid] | 74.3 | 14.4 | 50 | suppressive activity | 32.9 | 57.8 | highest suppressive activity | – | –
C/C=C1/[C@H](OC2OC(CO)C(O)C(O)C2O)OC=C(C(=O)O)[C@H]1CC(=O)OCCC1CCCCC1 (stereo in doubt) [GS5, (2S,4S,E)-4-(2-(2-cyclohexylethoxy)-2-oxoethyl)-3-ethylidene-2-{[(2R,3S,4R,5R,6S)-3,4,5-trihydroxy-6-(hydroxymethyl)tetrahydro-2H-pyran-2-yl]oxy}-3,4-dihydro-2H-pyran-5-carboxylic acid] | 33.6 | – | – | – | – | – | – | – | –
C/C=C1/[C@H](OC2OC(CO)C(O)C(O)C2O)OC=C(C(=O)O)[C@H]1CC(=O)OCCOc1ccccc1 (stereo in doubt) [GS10, (2S,4S,E)-3-ethylidene-4-(2-oxo-2-(2-phenoxyethoxy)ethyl)-2-{[(2R,3S,4R,5R,6S)-3,4,5-trihydroxy-6-(hydroxymethyl)tetrahydro-2H-pyran-2-yl]oxy}-3,4-dihydro-2H-pyran-5-carboxylic acid] | 14 | 33.5 | 22 | suppressive activity | 25.7 | 58.7 | – | 31.9 | –
C/C=C1/[C@H](OC2OC(CO)C(O)C(O)C2O)OC=C(C(=O)O)[C@H]1CC(=O)OCc1cc2ccccc2[nH]1 (stereo in doubt) [GS8, (2S,4S,E)-4-(2-((1H-indol-2-yl)methoxy)-2-oxoethyl)-3-ethylidene-2-{[(2R,3S,4R,5R,6S)-3,4,5-trihydroxy-6-(hydroxymethyl)tetrahydro-2H-pyran-2-yl]oxy}-3,4-dihydro-2H-pyran-5-carboxylic acid] | 22.5 | 38.2 | – | – | – | – | – | – | –
C/C=C1/[C@H](OC2OC(CO)C(O)C(O)C2O)OC=C(C(=O)O)[C@H]1CC(=O)OCCCSC (stereo in doubt) [GS9, (2S,4S,E)-3-ethylidene-4-(2-(3-(methylthio)propoxy)-2-oxoethyl)-2-{[(2R,3S,4R,5R,6S)-3,4,5-trihydroxy-6-(hydroxymethyl)tetrahydro-2H-pyran-2-yl]oxy}-3,4-dihydro-2H-pyran-5-carboxylic acid] | 71.2 | 20 | 55 | suppressive activity | 41.7 | 11.6 | highest suppressive activity | – | –
C/C=C(/C=O)[C@@H](CC=O)CC(=O)OCC12CC3CC(CC(C3)C1)C2 [GS23, (3S,4E)-4-formyl-3-(2-oxoethyl)hex-4-enoic acid adamantan-1-ylmethyl ester] | 42.7 | 25.2 | 15 | – | – | 64.7 | – | – | 17.6
C/C=C1/[C@H](OC2OC(CO)C(O)C(O)C2O)OC=C(C(=O)O)[C@H]1CC(=O)O (stereo in doubt) [GS2, (2S,4S,E)-4-(carboxymethyl)-3-Ethylidene-2-{[(2R,3S,4R,5R,6S)-3,4,5-trihydroxy-6-(hydroxymethyl)tetrahydro-2H-pyran-2-yl]oxy}-3,4-dihydro-2H-pyran-5-carboxylic acid] | 41.8 | 24.4 | – | – | – | – | – | – | –
C/C=C1/[C@H](OC2OC(CO)C(O)C(O)C2O)OC=C(C(=O)O)[C@H]1CC(=O)OCC12CC3CC(CC(C3)C1)C2 (stereo in doubt) [GS3, (2S,4S,E)-4-(2-(adamantan-1-ylmethoxy)-2-oxoethyl)-3-ethylidene-2-{[(2R,3S,4R,5R,6S)-3,4,5-trihydroxy-6-(hydroxymethyl)tetrahydro-2H-pyran-2-yl]oxy}-3,4-dihydro-2H-pyran-5-carboxylic acid] | 64.7 | – | – | – | – | – | – | – | –

Reference: US12414960B2, “Analogues of oleuropein and oleacein and uses thereof” (Attica Sciences Ltd., priority 2020, dated 2025)
